Laboratory results taken from patent publication US20250205260A1, “ADJUNCTIVE TREATMENT OF MYCOBACTERIAL DISEASES” (UNIVERSITY OF SOUTHERN CALIFORNIA, priority 2022, published 2025).
Values after ≈ are worked out from the molar mass of the structure shown. Like-named read-outs stand apart in the source and are kept apart here.

What was measured:
[1] = test system: H37Rv lab strain (M. tuberculosis); type: cell-based, Mycobacterium tuberculosis; conditions: for IC95 2-treNH2: antibiotic in combination with 2-treNH2; for IC95 4-treNH2: antibiotic in combination with 4-treNH2; for IC95 6-treNH2: antibiotic in combination with 6-treNH2
[2] = test system: M. tuberculosis biofilm; experiment: M. tuberculosis biofilm formation inhibition (crystal violet staining); type: cell-based, Mycobacterium tuberculosis; conditions: for overall activity against M. tuberculosis: biofilm inhibition, normal growth inhibition and antibiotic synergism assays, preliminary results
Method: FIG. 1A-D. Anti-M. tuberculosis biofilm activity of 6-treAz (6-azido-6-deoxy-D-trehalose). The effects of various concentrations of 6-treAz treatment on M. tuberculosis biofilms were monitored by crystal violet (CV) staining assay (A and B). […] The effect of 6-treAz on TreS mediated maltose production. Y-axis is the amount of maltose produced (D).
Planktonic growth and biofilm assays. Evaluation of planktonic growth and biofilm formation inhibition for M. smegmatis was carried out as previously reported for other trehalose analogues (Carbohydr. Res. 2017, 450, 60-66). Evaluation of planktonic growth and biofilm formation inhibition for M. tuberculosis was carried out as previously reported for 6-TreAz (Nat. Commun., 2019, 2928-2928).

[3] = test system: M. smegmatis; conditions: cited from earlier work
[4] = test system: M. smegmatis biofilm; experiment: M. smegmatis biofilm formation inhibition; type: cell-based, Mycobacterium smegmatis
[5] = test system: M. tuberculosis trehalose catalytic shift (metabolome); experiment: Metabolomics profiling / trehalose catalytic shift; type: cell-based, Mycobacterium tuberculosis; conditions: M. tuberculosis biofilm, trehalose accumulation, depletion of maltose, glucose-P, sedoheptulose-P
[6] = test system: M. aurum; conditions: cited from earlier work
[7] = test system: M. tuberculosis; experiment: M. tuberculosis planktonic growth inhibition; type: cell-based, Mycobacterium tuberculosis
[8] = test system: M. smegmatis biofilm; conditions: cited from earlier work
[9] = target: TreS (trehalose synthase) (Mycobacterium tuberculosis, UniProt P9WQ19); experiment: In vitro TreS assay (maltose production, LC-MS); type: biochemical, M. tuberculosis; conditions: 100 μM compound, in vitro TreS enzyme reaction
Chain of TreS (trehalose synthase) (P9WQ19 whole entry, looked up): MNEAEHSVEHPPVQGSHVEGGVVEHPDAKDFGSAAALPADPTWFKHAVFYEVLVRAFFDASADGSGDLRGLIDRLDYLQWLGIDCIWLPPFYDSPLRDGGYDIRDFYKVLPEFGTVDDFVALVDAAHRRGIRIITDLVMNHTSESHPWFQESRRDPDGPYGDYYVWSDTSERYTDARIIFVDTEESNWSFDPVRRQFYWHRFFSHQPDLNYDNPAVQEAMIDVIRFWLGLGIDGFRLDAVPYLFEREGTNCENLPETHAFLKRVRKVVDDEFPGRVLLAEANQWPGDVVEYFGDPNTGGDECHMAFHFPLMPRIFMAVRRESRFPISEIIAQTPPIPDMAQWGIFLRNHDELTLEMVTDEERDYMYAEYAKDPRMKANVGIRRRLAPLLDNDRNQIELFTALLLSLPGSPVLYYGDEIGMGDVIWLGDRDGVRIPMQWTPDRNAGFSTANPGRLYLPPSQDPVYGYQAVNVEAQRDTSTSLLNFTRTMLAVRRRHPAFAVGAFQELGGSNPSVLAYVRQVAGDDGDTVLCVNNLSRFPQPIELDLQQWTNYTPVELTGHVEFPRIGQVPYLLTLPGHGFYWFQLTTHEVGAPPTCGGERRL
Method: In vitro TreS assay. TreS activity was measured using a 100 μL in vitro enzyme reaction containing 40 mM MOPS (pH 7.0), 10 mM trehalose, and 20 ng of purified TreS enzyme in the presence or absence of 6-treAz or validamycin A (a known TreS inhibitor). The reaction was initiated by adding TreS enzyme, incubated at 37° C., and then quenched by heating and adding acetonitrile containing 0.2% formic acid. After centrifugation, supernatants were used for LC-MS to quantify maltose product.

[10] = test system: M. tuberculosis; conditions: cited from earlier work
[11] = M. tuberculosis IC95 shift assay

SMILES: CO[C@H]1/C=C/O[C@@]2(C)Oc3c(C)c(O)c4c(O)c(c(/C=N/N5CCN(C)CC5)c(O)c4c3C2=O)NC(=O)/C(C)=C\C=C\[C@H](C)[C@H](O)[C@@H](C)[C@@H](O)[C@@H](C)[C@H](OC(C)=O)[C@@H]1C [RIF, rifampicin]
- IC95 WT [1]: 0.18 µg/mL (≈ 0.219 µM)
- IC95 2-treNH2 ([1]; H37Rv): 0.09 µg/mL
- IC95 4-treNH2 ([1]; H37Rv): 0.14 µg/mL
- IC95 6-treNH2 ([1]; H37Rv): 0.24 µg/mL

SMILES: [N-]=[N+]=N[C@H]1[C@H](O)[C@@H](O)[C@@H](O[C@H]2O[C@H](CO)[C@@H](O)[C@H](O)[C@H]2O)O[C@@H]1CO [4-TreAz, (2R,3R,4S,5S,6R)-2-(((2R,3R,4S,5S,6S)-5-azido-3,4-dihydroxy-6-(hydroxymethyl)tetrahydro-2H-pyran-2-yl)oxy)-6-(hydroxymethyl)tetrahydro-2H-pyran-3,4,5-triol]
- overall activity against M. tuberculosis [2]: did not show activity
- inhibition of M. smegmatis planktonic growth (previous research) [3]: did not exhibit inhibition
- overall activity against M. smegmatis ([4]; biofilm inhibition, normal growth inhibition and antibiotic synergism assays): did not show activity

SMILES: [N-]=[N+]=NC[C@H]1O[C@H](O[C@H]2O[C@H](CO)[C@@H](O)[C@H](O)[C@H]2O)[C@H](O)[C@@H](O)[C@@H]1O [6-TreAz, (2R,3S,4S,5R,6R)-2-(azidomethyl)-6-(((2R,3R,4S,5S,6R)-3,4,5-trihydroxy-6-(hydroxymethyl)tetrahydro-2H-pyran-2-yl)oxy)tetrahydro-2H-pyran-3,4,5-triol]
- inhibition of the trehalose catalytic shift [5]: blocked
- inhibition of the trehalose catalytic shift ([5]; listed as 6-treAz): dose-dependent inhibition
- inhibition of M. tuberculosis biofilm formation [2]: selective inhibitory activity
- concentration that significantly interfered with M. tuberculosis biofilm formation ([2]; WT biofilm culture): at least 100 M
- inhibition of M. aurum growth (previous research) [6]: inhibit growth
- inhibition of M. tuberculosis planktonic growth [7]: no discernible effects
- inhibition of M. smegmatis biofilm formation (previously known) [8]: known to inhibit
- inhibition of M. smegmatis planktonic growth (previous research) [3]: inhibit growth
- TreS mediated maltose production [9]: abolished
- inhibition of M. tuberculosis planktonic growth (previous research) [10]: inhibit growth

SMILES: N[C@H]1[C@@H](O[C@H]2O[C@H](CO)[C@@H](O)[C@H](O)[C@H]2O)O[C@H](CO)[C@@H](O)[C@@H]1O [2-TreNH2, (2R,3R,4S,5S,6R)-2-(((2R,3R,4R,5S,6R)-3-amino-4,5-dihydroxy-6-(hydroxymethyl)tetrahydro-2H-pyran-2-yl)oxy)-6-(hydroxymethyl)tetrahydro-2H-pyran-3,4,5-triol]
- inhibition of M. tuberculosis biofilm formation [2]: inhibit
- antimycobacterial synergy with TB antibiotics ([1]; H37Rv, INH, RIF or BDQ, […]): antimicrobial synergy against H37Rv level similar to that of ΔtreS
- effect of co-treatment on IC95 values of isoniazid (INH) or rifampicin (RIF) [1, 11]: significantly reduced
- reduction of IC95 value of bedaquiline (BDQ) by co-treatment [1, 11]: not
- inhibition of M. smegmatis biofilm formation [4]: inhibit
- inhibition of M. tuberculosis planktonic growth (previous research) [10]: exhibited inhibition

SMILES: N[C@@H]1[C@@H](O)[C@@H](O[C@H]2O[C@H](CO)[C@@H](O)[C@H](O)[C@H]2O)O[C@H](CO)[C@H]1O [3-TreNH2, (2R,3R,4S,5S,6R)-2-(((2R,3R,4S,5S,6R)-4-amino-3,5-dihydroxy-6-(hydroxymethyl)tetrahydro-2H-pyran-2-yl)oxy)-6-(hydroxymethyl)tetrahydro-2H-pyran-3,4,5-triol]
- inhibition of M. tuberculosis biofilm formation [2]: moderate inhibitor

SMILES: N[C@@H]1[C@@H](O[C@H]2O[C@H](CO)[C@@H](O)[C@H](O)[C@H]2O)O[C@H](CO)[C@@H](O)[C@@H]1O [2-epi-TreNH2, (2R,3R,4S,5S,6R)-2-(((2R,3S,4R,5S,6R)-3-amino-4,5-dihydroxy-6-(hydroxymethyl)tetrahydro-2H-pyran-2-yl)oxy)-6-(hydroxymethyl)tetrahydro-2H-pyran-3,4,5-triol]
- inhibition of M. tuberculosis biofilm formation [2]: do not
- inhibition of M. tuberculosis planktonic growth [7]: no inhibitory effects
- inhibition of M. smegmatis biofilm formation [4]: no inhibitory effects

SMILES: [N-]=[N+]=N[C@@H]1[C@@H](O)[C@@H](O[C@H]2O[C@H](CO)[C@@H](O)[C@H](O)[C@H]2O)O[C@H](CO)[C@H]1O [3-TreAz, (2R,3R,4S,5S,6R)-2-(((2R,3R,4S,5S,6R)-4-azido-3,5-dihydroxy-6-(hydroxymethyl)tetrahydro-2H-pyran-2-yl)oxy)-6-(hydroxymethyl)tetrahydro-2H-pyran-3,4,5-triol]
- inhibition of M. smegmatis planktonic growth (previous research) [3]: did not exhibit inhibition

SMILES: [N-]=[N+]=N[C@@H]1[C@@H](O[C@H]2O[C@H](CO)[C@@H](O)[C@H](O)[C@H]2O)O[C@H](CO)[C@@H](O)[C@@H]1O [2-epi-TreAz, (2R,3R,4S,5S,6R)-2-(((2R,3S,4R,5S,6R)-3-azido-4,5-dihydroxy-6-(hydroxymethyl)tetrahydro-2H-pyran-2-yl)oxy)-6-(hydroxymethyl)tetrahydro-2H-pyran-3,4,5-triol]
- inhibition of M. tuberculosis biofilm formation [2]: can inhibit
- inhibition of M. tuberculosis biofilm formation ([2]; at 1 mM): completely blocks
- overall activity against M. tuberculosis [2]: most potent
- inhibition of M. tuberculosis biofilm formation ([2]; listed as Epi-2-TreAz): completely inhibits
- inhibition of M. tuberculosis planktonic growth [7]: can inhibit
- inhibition of M. tuberculosis planktonic growth ([7]; at 1 mM): completely blocks
- inhibition of M. tuberculosis planktonic growth ([7]; listed as Epi-2-TreAz): completely inhibits
- inhibition of M. smegmatis biofilm formation [4]: selectively inhibits
- inhibition of M. smegmatis biofilm formation ([4]; at 1 mM): selectively blocks

SMILES: N[C@@H]1[C@H](O)[C@@H](O)[C@@H](O[C@H]2O[C@H](CO)[C@@H](O)[C@H](O)[C@H]2O)O[C@@H]1CO [4-epi-TreNH2, (2R,3R,4S,5S,6R)-2-(((2R,3R,4S,5R,6S)-5-amino-3,4-dihydroxy-6-(hydroxymethyl)tetrahydro-2H-pyran-2-yl)oxy)-6-(hydroxymethyl)tetrahydro-2H-pyran-3,4,5-triol]
- inhibition of M. tuberculosis biofilm formation [2]: do not
- inhibition of M. tuberculosis planktonic growth [7]: no inhibitory effects
- inhibition of M. smegmatis biofilm formation [4]: no inhibitory effects

SMILES: N[C@H]1[C@H](O)[C@@H](O)[C@@H](O[C@H]2O[C@H](CO)[C@@H](O)[C@H](O)[C@H]2O)O[C@@H]1CO [4-TreNH2, (2R,3R,4S,5S,6R)-2-(((2R,3R,4S,5S,6S)-5-amino-3,4-dihydroxy-6-(hydroxymethyl)tetrahydro-2H-pyran-2-yl)oxy)-6-(hydroxymethyl)tetrahydro-2H-pyran-3,4,5-triol]
- inhibition of M. tuberculosis biofilm formation [2]: inhibit
- inhibition of M. tuberculosis planktonic growth [7]: inhibits
- inhibition of M. smegmatis planktonic growth (previous research) [3]: did not exhibit inhibition
- inhibition of M. smegmatis biofilm formation [4]: did not exhibit activity

SMILES: COc1nc2ccc(Br)cc2cc1[C@@H](c1ccccc1)[C@@](O)(CCN(C)C)c1cccc2ccccc12 [BDQ, bedaquiline]
- IC95 WT [1]: 0.59 µg/mL (≈ 1.06 µM)
- IC95 2-treNH2 ([1]; H37Rv): 0.78 µg/mL
- IC95 4-treNH2 ([1]; H37Rv): 0.39 µg/mL
- IC95 6-treNH2 ([1]; H37Rv): 0.57 µg/mL

SMILES: NC[C@H]1O[C@H](O[C@H]2O[C@H](CO)[C@@H](O)[C@H](O)[C@H]2O)[C@H](O)[C@@H](O)[C@@H]1O [6-TreNH2, (2R,3S,4S,5R,6R)-2-(aminomethyl)-6-(((2R,3R,4S,5S,6R)-3,4,5-trihydroxy-6-(hydroxymethyl)tetrahydro-2H-pyran-2-yl)oxy)tetrahydro-2H-pyran-3,4,5-triol]
- inhibition of M. tuberculosis biofilm formation [2]: no inhibitory effect
- inhibition of M. tuberculosis planktonic growth [7]: no inhibitory effect
- inhibition of M. tuberculosis planktonic growth (previous research) [10]: did not exhibit inhibition

SMILES: NNC(=O)c1ccncc1 [INH, isoniazid]
- IC95 WT [1]: 0.28 µg/mL (≈ 2.04 µM)
- IC95 2-treNH2 ([1]; H37Rv): 0.21 µg/mL
- IC95 4-treNH2 ([1]; H37Rv): 0.44 µg/mL
- IC95 6-treNH2 ([1]; H37Rv): 0.33 µg/mL

SMILES: [N-]=[N+]=N[C@H]1[C@@H](O[C@H]2O[C@H](CO)[C@@H](O)[C@H](O)[C@H]2O)O[C@H](CO)[C@@H](O)[C@@H]1O [2-TreAz, (2R,3R,4S,5S,6R)-2-(((2R,3R,4R,5S,6R)-3-azido-4,5-dihydroxy-6-(hydroxymethyl)tetrahydro-2H-pyran-2-yl)oxy)-6-(hydroxymethyl)tetrahydro-2H-pyran-3,4,5-triol]
- overall activity against M. tuberculosis [2]: top candidate
- inhibition of M. smegmatis planktonic growth (previous research) [3]: exhibited planktonic growth inhibition

SMILES: [N-]=[N+]=N[C@@H]1[C@H](O)[C@@H](O)[C@@H](O[C@H]2O[C@H](CO)[C@@H](O)[C@H](O)[C@H]2O)O[C@@H]1CO [4-epi-TreAz, (2R,3R,4S,5S,6R)-2-(((2R,3R,4S,5R,6S)-5-azido-3,4-dihydroxy-6-(hydroxymethyl)tetrahydro-2H-pyran-2-yl)oxy)-6-(hydroxymethyl)tetrahydro-2H-pyran-3,4,5-triol]
- inhibition of M. tuberculosis biofilm formation [2]: do not
- inhibition of M. tuberculosis planktonic growth [7]: no inhibitory effects
- inhibition of M. smegmatis biofilm formation [4]: no inhibitory effects
